Results published in ChEMBL document CHEMBL1201862, “PubChem BioAssay data set” (2004).
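Exposure lasted 48 hours, with cells grown in 96-well plates and compounds tested at five concentrations. GI50 = concentration required for 50% inhibition of growth.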 Activity calls are given as the source filed them. Rule as the data show it: active = GI50 up to about 1.1 µM and inactive = higher.

Legend:
Test in all cases: NCI tumour cell line growth inhibition, 48 h
CAKI-1 = system: CAKI-1
HL-60 = system: HL-60
HOP-62 = system: HOP-62
IGROV-1 = system: IGROV-1
K562 = system: K562
LOX IMVI = system: LOX IMVI
M14 = system: M14
M19-MEL = system: M19-MEL
NCI-H460 = system: NCI-H460
NCI-H522 = system: NCI-H522
OVCAR-5 = system: OVCAR-5
SF-295 = system: SF-295
SW-620 = system: SW-620
U-251 = system: U-251
UO-31 = system: UO-31
BT-549 = system: BT-549
Hs-578T = system: Hs-578T
MDA-MB-435 = system: MDA-MB-435
NCI/ADR-RES = system: NCI/ADR-RES
RXF 393 = system: RXF 393

Structure (SMILES)	GI50 (CAKI-1)	GI50 (HL-60)	GI50 (HOP-62)	GI50 (IGROV-1)	GI50 (K562)	GI50 (LOX IMVI)	GI50 (M14)	GI50 (M19-MEL)	GI50 (NCI-H460)	GI50 (NCI-H522)	GI50 (OVCAR-5)	GI50 (SF-295)	GI50 (SW-620)	GI50 (U-251)	GI50 (UO-31)	GI50 (BT-549)	GI50 (Hs-578T)	GI50 (MDA-MB-435)	GI50 (NCI/ADR-RES)	GI50 (RXF 393)
COc1ccc(NC(=O)CC(=O)N/N=C/c2ccc(N(CCC#N)S(=O)(=O)c3ccccc3)cc2)cc1	> 100 µM (inactive)	> 100 µM (inactive)	> 100 µM (inactive)	> 100 µM (inactive)	> 100 µM (inactive)	> 100 µM (inactive)	> 100 µM (inactive)	> 100 µM (inactive)	> 100 µM (inactive)	> 100 µM (inactive)	> 100 µM (inactive)	> 100 µM (inactive)	> 100 µM (inactive)	> 100 µM (inactive)	> 100 µM (inactive)	–	–	–	–	–
O=C(O[C@H]1[C@@H](O)[C@H](n2cnc3c(Cl)ncnc32)O[C@@H]1COC(c1ccccc1)(c1ccccc1)c1ccccc1)c1ccccc1	2.62 µM (inactive)	9.91 µM (inactive)	16.7 µM (inactive)	15.9 µM (inactive)	3.6 µM (inactive)	4.91 µM (inactive)	26.3 µM (inactive)	–	17.5 µM (inactive)	5.09 µM (inactive)	> 100 µM (inactive)	19.8 µM (inactive)	54.5 µM (inactive)	22.8 µM (inactive)	1.27 µM (inactive)	18.2 µM (inactive)	2.9 µM (inactive)	26.8 µM (inactive)	34.8 µM (inactive)	16.6 µM (inactive)
Cn1c(N)c(/C=C/C(=O)Oc2ccccc2)c(=O)n(C)c1=O	29 µM (inactive)	> 100 µM (inactive)	19.1 µM (inactive)	67.9 µM (inactive)	> 100 µM (inactive)	> 100 µM (inactive)	> 100 µM (inactive)	–	> 100 µM (inactive)	> 100 µM (inactive)	> 100 µM (inactive)	33.7 µM (inactive)	> 100 µM (inactive)	52.8 µM (inactive)	49.7 µM (inactive)	> 100 µM (inactive)	36 µM (inactive)	> 100 µM (inactive)	75.3 µM (inactive)	44.2 µM (inactive)
CSc1nc2c(nc(N)n2C2OCC(O)C(O)C2O)c(=O)n1C (stereo not drawn)	> 100 µM (inactive)	> 100 µM (inactive)	> 100 µM (inactive)	> 100 µM (inactive)	> 100 µM (inactive)	> 100 µM (inactive)	> 100 µM (inactive)	> 100 µM (inactive)	> 100 µM (inactive)	> 100 µM (inactive)	–	> 100 µM (inactive)	> 100 µM (inactive)	> 100 µM (inactive)	> 100 µM (inactive)	–	–	–	–	> 100 µM (inactive)
CN(C)c1ccc(C=c2c3ccccc3n3c2c2c([n+]3C)CCCC2)cc1	0.908 µM (active)	0.075 µM (active)	0.165 µM (active)	0.138 µM (active)	0.023 µM (active)	0.143 µM (active)	0.208 µM (active)	–	0.11 µM (active)	0.161 µM (active)	0.463 µM (active)	0.0991 µM (active)	0.118 µM (active)	0.0223 µM (active)	1.12 µM (inactive)	0.186 µM (active)	0.351 µM (active)	0.109 µM (active)	3.17 µM (inactive)	0.106 µM (active)
Cc1cccc(C)c1NC(=O)C(=O)CC(=O)/C=C/c1ccccc1	> 100 µM (inactive)	> 100 µM (inactive)	> 100 µM (inactive)	> 100 µM (inactive)	> 100 µM (inactive)	> 100 µM (inactive)	> 100 µM (inactive)	–	73.6 µM (inactive)	> 100 µM (inactive)	> 100 µM (inactive)	> 100 µM (inactive)	> 100 µM (inactive)	> 100 µM (inactive)	> 100 µM (inactive)	> 100 µM (inactive)	> 100 µM (inactive)	> 100 µM (inactive)	> 100 µM (inactive)	> 100 µM (inactive)
CCCCNC(=O)C1C2CCC(O2)C1C(=O)O (stereo not drawn)	–	–	34.7 µM (inactive)	> 100 µM (inactive)	–	16.5 µM (inactive)	14.2 µM (inactive)	19.3 µM (inactive)	41 µM (inactive)	18.9 µM (inactive)	> 100 µM (inactive)	23.1 µM (inactive)	1.71 µM (inactive)	13.6 µM (inactive)	64.6 µM (inactive)	–	–	–	–	2.07 µM (inactive)
CCCN(CCC)C(=S)N/N=C/c1ccccn1	0.0169 µM (active)	< 0.01 µM (active)	< 0.01 µM (active)	< 0.01 µM (active)	< 0.01 µM (active)	< 0.01 µM (active)	< 0.0125 µM (active)	–	0.0103 µM (active)	< 0.01 µM (active)	< 0.0482 µM (active)	0.0468 µM (active)	< 0.014 µM (active)	< 0.0138 µM (active)	0.0239 µM (active)	0.341 µM (active)	2.96 µM (inactive)	0.17 µM (active)	< 0.01 µM (active)	0.0566 µM (active)
